Target: T1, DCAF16 (Homo sapiens, UniProt Q9NXF7)
T1 construct: endogenously expressed DCAF16 in HEK293T cells; endogenous in cells; host or cells: HEK293T
Assay: Competitive ABPP (TMT) of cysteine engagement in endogenous DCAF16
Format: cell-based
Conditions: HEK293T, 1.5 h
Protocol: HEK293T cells were treated with DMSO (four biological replicates), 2 μM KB02-SLF (three biological replicates) or 20 μM KB02-JQ1 (three biological replicates) for 1.5 h (ten samples in total). Cells were collected, washed once with PBS and lysed in PBS by sonication (40%, 4, 20 pulses). Samples were clarified by centrifugation for 10 min at 8,000 g. Lysate was adjusted to 1.0 mg/mL in 500 μL. Samples were labeled with 100 μM iodoacetamide alkyne (5 μL of 10 mM stock in DMSO) at room temperature for 1 hour, conjugated by CuACC to desthiobiotin azide (10 μL of 5 mM stock in DMSO, final concentration=100 tris(2-carboxyethyl)phosphine hydrochloride (TCEP, 10 μL of 50 mM stock in H2O, final concentration=1 mM), TBTA (30 μL of 1.7 mM stock in 4:1 tBuOH:DMSO, final concentration=100 μM) and CuSO4 (10 μL of 50 mM stock in H2O, final concentration=1 mM). The samples were allowed to react for 1 hour at room temperature. Proteins were precipitated by adding 3.5 mL of H2O, 4 mL of methanol and 1.5 mL of chloroform, followed by centrifugation at 5,000 g for 15 min (4° C.). After aspirating the top layer, the protein pellets with bottom layer were washed with 8 mL cold methanol by centrifugation at 5,000 g for 15 min (4° C.). Protein pellets were resuspended in 90 μL of buffer containing 9 M urea, 10 mM DTT and 50 mM tetramethylammonium bicarbonate (pH 8.5), sonicated (40%, 4, 5 pulses) and heated at 65° C. for 20 min. Samples were cooled to room temperature and alkylated with 50 mM iodoacetamide (10 μL of 500 mM stock in H2O) at 37° C. for 30 minutes. Samples were diluted with 350 μL of 50 mM tetramethylammonium bicarbonate (pH 8.5) and digested with 2 μg trypsin at 37° C. for 4 hours. 40 μL of streptavidin-agarose beads slurry was washed in immunoprecipitation (IP) washing buffer and added to each sample. Beads with peptide samples were rotated for 1 hour at room temperature, filtered off by micro Bio-Spin chromatography column (Bio-Rad) and washed with 1 mL of IP washing buffer (three times), 1 mL of PBS (three times) and 1 mL of H2O. Peptides were eluted by adding 300 μL of 50% acetonitrile with 0.1% of formic acid and dried in vacuum concentrator.
Peptides were resuspended in 100 μL of 30% acetonitrile in 200 mM EPPS (pH 8) and labeled with TMT10plex isobaric reagent following the manufacturer's instructions. 0.15% of hydroxylamine (3 μL of 5% stock in H2O) was added to each sample to quench the reaction (incubate for 15 minutes). After adding 5 μL of formic acid to each sample, 10 peptide samples were combined and dried in vacuum concentrator. […]
The samples were analyzed in Orbitrap Fusion Tribrid mass spectrometer (Thermo Scientific) coupled to UltiMate 3000 HPLC system (Thermo Scientific). […]

Row | engagement of DCAF16 C119 (KB02-JQ1 20 μM) | engagement of DCAF16 peptide (aa 168-184) containing cysteines 173 and 177-179 (KB02-JQ1 20 μM) | Compound | engagement of DCAF16 C119 (KB02-SLF 2 μM) | engagement of DCAF16 peptide (aa 168-184) containing cysteines 173 and 177-179 (KB02-SLF 2 μM)
1 | – | – | CCC(C)(C)C(=O)C(=O)N1CCCC[C@H]1C(=O)O[C@H](CCc1ccc(OC)c(OC)c1)c1cccc(NC(=O)CCOCCOCCNC(=O)COc2ccc3c(c2)CCCN3C(=O)CCl)c1 [KB02-SLF, (R)-1-(3-(3-(2-(2-(2-((1-(2-chloroacetyl)-1,2,3,4-tetrahydroquinolin-6-yl)oxy)acetamido)ethoxy)ethoxy)propanamido)phenyl)-3-(3,4-dimethoxyphenyl)propyl (S)-1-(3,3-dimethyl-2-oxopentanoyl)piperidine-2-carboxylate] | no evidence of engagement | ~10%
2 | no evidence of engagement | 40% | Cc1sc2c(c1C)C(c1ccc(Cl)cc1)=N[C@@H](CC(=O)NCCOCCOCCNC(=O)COc1ccc3c(c1)CCCN3C(=O)CCl)c1nnc(C)n1-2 [KB02-JQ1, (S)-2-((1-(2-chloroacetyl)-1,2,3,4-tetrahydroquinolin-6-yl)oxy)-N-(2-(2-(2-(2-(4-(4-chlorophenyl)-2,3,9-trimethyl-6H-thieno[3,2-f][1,2,4]triazolo[4,3-a][1,4]diazepin-6-yl)acetamido)ethoxy)ethoxy)ethyl)acetamide] | – | –
